Test results published in PMC7864192 (Cancers, 2021).
Where “and” joins values, the source holds several entries; their conditions need not be identical. Equal entries are not always repeated. Where two headings read alike, the source gives them in different places.

What was measured:
[1] = system: GCPA096 T1.I patient-derived AGCT cell line; assay: Cell viability drug screen (Cell Titer Glo 2.0, 72 h), mono- and combination therapy, GCPA096T1.I; details: for DRI (Fa=0,5): GCPA096T1I; for IC50: Homo sapiens, read-out: IC50 in monotherapy
Experimental: (§1) Cell lines were seeded at a density of 500 cells/well in 40 uL in 384-well plates (Corning, NY, USA) with the Multidrop™ cell dispenser (Thermo Fischer Scientific, Waltham, MA, USA) and sealed with Breathe-Easy® membrane (Sigma-Aldrich, St. Louis, MO, USA) to prevent evaporation. […] For each cell line, three biological repeats and two technical repeats each were performed in order to ensure the validity of the drug screens. […] Subsequently, 11 drugs and 12 drug combinations were dispensed and all wells (excluding blanks and non-DMSO control wells) were normalized to 1% DMSO using the HP Tecan D300e Digital Dispenser (Hewlett-Packard, Palo Alto, CA, USA). […] Next, the plates were covered with the Breathe-Easy membrane and incubated. After 72 h, the Multidrop dispensed 15 uL per well of Cell Titer Glo 2.0 (Thermo Fischer Scientific, Waltham, MA, USA) and plates were incubated in the dark for 10 min. After incubation, luminescence excitation was assessed in the Spectramax reader (Molecular Devices, San Jose, CA, USA) (top read, luminescence excitation at 500 nm) and raw data were processed in Microsoft Excel to subtract background luminescence. The Z-factor, a mathematical method used to quantify the quality of a drug screen based on the calculation of the separation band between the values of the positive and negative controls, was utilized to assess the quality of drug screens [54]. Screens with a Z-factor value of >0.5 were used for further analysis.
(§2) Overall cell survival (in %) was plotted against the drug concentration range of each drug (in log10[μM]) using GraphPad Prism 8.3.1. Values that exceeded 100% survival (within +20% biological deviation) were normalized to 100% survival. Similarly, values below 0% cell survival (within −20% biological deviation) were normalized to 0% survival. Values exceeding this deviation were excluded. Dose–response curves were obtained using the model “log(inhibitor) vs. variable slope (normalized response)” to fit the dose–response curves and R^2 values were used to indicate how well the model fit the data (Supplementary Materials Figures S4 and S5). […] The IC50 values were calculated based on the Chou–Talalay method using Compusyn software [55]. For anti-hormonal treatment, mostly provided as maintenance therapy, we used IC10 values in addition to the IC50.
(§3) In addition to the 11 monotherapies, 12 drug combinations were tested (Table 3) simultaneously with the individual drug treatments in the same 384-well plate. […] Synergy was evaluated using the mass action law, a systematic analysis assessing dose–response dynamics in a cost-effective manner [56, 57]. The combination index (CI) was used to indicate antagonistic (CI > 1) additive (CI = 1) and synergistic (CI < 1) effects [55].

[2] = cited from earlier work
[3] = system: GCPA007 T2.I patient-derived AGCT cell line; assay: Cell viability drug screen (Cell Titer Glo 2.0, 72 h), mono- and combination therapy, GCPA007T2.I; details: for IC50: Homo sapiens, 72 h, read-out: IC50 in monotherapy; for DRI (Fa=0,5): GCPA007T2I
Experimental: (§4) Cell lines were seeded at a density of 500 cells/well in 40 uL in 384-well plates (Corning, NY, USA) with the Multidrop™ cell dispenser (Thermo Fischer Scientific, Waltham, MA, USA) and sealed with Breathe-Easy® membrane (Sigma-Aldrich, St. Louis, MO, USA) to prevent evaporation. The SVOG-3e line was seeded at 1000 cells/well due to contact-dependent growth requirements. For each cell line, three biological repeats and two technical repeats each were performed in order to ensure the validity of the drug screens. […] Subsequently, 11 drugs and 12 drug combinations were dispensed and all wells (excluding blanks and non-DMSO control wells) were normalized to 1% DMSO using the HP Tecan D300e Digital Dispenser (Hewlett-Packard, Palo Alto, CA, USA). All drugs were applied in linear concentration ranges (Table 2), including 16 data points to enable combination drug testing at constant ratios (Table 3). Next, the plates were covered with the Breathe-Easy membrane and incubated. After 72 h, the Multidrop dispensed 15 uL per well of Cell Titer Glo 2.0 (Thermo Fischer Scientific, Waltham, MA, USA) and plates were incubated in the dark for 10 min. After incubation, luminescence excitation was assessed in the Spectramax reader (Molecular Devices, San Jose, CA, USA) (top read, luminescence excitation at 500 nm) and raw data were processed in Microsoft Excel to subtract background luminescence. […] Screens with a Z-factor value of >0.5 were used for further analysis.
(§5) Overall cell survival (in %) was plotted against the drug concentration range of each drug (in log10[μM]) using GraphPad Prism 8.3.1. Values that exceeded 100% survival (within +20% biological deviation) were normalized to 100% survival. Similarly, values below 0% cell survival (within −20% biological deviation) were normalized to 0% survival. Values exceeding this deviation were excluded. Dose–response curves were obtained using the model “log(inhibitor) vs. variable slope (normalized response)” to fit the dose–response curves and R^2 values were used to indicate how well the model fit the data (Supplementary Materials Figures S4 and S5). […] The maximum plasma concentration (Cmax) and the plasma concentration at steady state (Css) were used as toxicity thresholds. The Cmax was utilized for drugs in which short, high-dosage time courses are required, while the Css was used for maintenance therapy regimes such as anti-hormonal treatment. […] The IC50 values were calculated based on the Chou–Talalay method using Compusyn software [55]. For anti-hormonal treatment, mostly provided as maintenance therapy, we used IC10 values in addition to the IC50.
as §3

[4] = system: GCPA028 T1.II patient-derived AGCT cell line; assay: Cell viability drug screen (Cell Titer Glo 2.0, 72 h), mono- and combination therapy, GCPA028; details: for IC50: Homo sapiens, read-out: IC50 in monotherapy
Experimental: as §4, §5, §3

[5] = system: GCPA113 T1.I patient-derived AGCT cell line; assay: Cell viability drug screen (Cell Titer Glo 2.0, 72 h), mono- and combination therapy, GCPA113T1.I; details: for DRI (Fa=0,5): GCPA113T1I; for IC50: Homo sapiens
Experimental: as §1, §2, §3

[6] = system: GCPA108 T3.IV patient-derived AGCT cell line; assay: Cell viability drug screen (Cell Titer Glo 2.0, 72 h), mono- and combination therapy, GCPA108T3.IV; details: for DRI (Fa=0,5): GCPA108T3IV; for IC50: Homo sapiens, read-out: IC50 in monotherapy
Experimental: (§6) Cell lines were seeded at a density of 500 cells/well in 40 uL in 384-well plates (Corning, NY, USA) with the Multidrop™ cell dispenser (Thermo Fischer Scientific, Waltham, MA, USA) and sealed with Breathe-Easy® membrane (Sigma-Aldrich, St. Louis, MO, USA) to prevent evaporation. The SVOG-3e line was seeded at 1000 cells/well due to contact-dependent growth requirements. For each cell line, three biological repeats and two technical repeats each were performed in order to ensure the validity of the drug screens. […] Subsequently, 11 drugs and 12 drug combinations were dispensed and all wells (excluding blanks and non-DMSO control wells) were normalized to 1% DMSO using the HP Tecan D300e Digital Dispenser (Hewlett-Packard, Palo Alto, CA, USA). All drugs were applied in linear concentration ranges (Table 2), including 16 data points to enable combination drug testing at constant ratios (Table 3). Next, the plates were covered with the Breathe-Easy membrane and incubated. After 72 h, the Multidrop dispensed 15 uL per well of Cell Titer Glo 2.0 (Thermo Fischer Scientific, Waltham, MA, USA) and plates were incubated in the dark for 10 min. After incubation, luminescence excitation was assessed in the Spectramax reader (Molecular Devices, San Jose, CA, USA) (top read, luminescence excitation at 500 nm) and raw data were processed in Microsoft Excel to subtract background luminescence. The Z-factor, a mathematical method used to quantify the quality of a drug screen based on the calculation of the separation band between the values of the positive and negative controls, was utilized to assess the quality of drug screens [54]. Screens with a Z-factor value of >0.5 were used for further analysis.
as §5, §3

[7] = system: AGCT cell lines; assay: Cell viability drug screen (72 h), summary over AGCT cell lines (12 patient-derived, with or without KGN); format: cell-based, human; details: Homo sapiens; median over AGCT cell lines; read-out: median IC50 in monotherapy
Experimental: as §6, §5, §3

[8] = system: GCPA096 T1.XV patient-derived AGCT cell line; assay: Cell viability drug screen (Cell Titer Glo 2.0, 72 h), mono- and combination therapy, GCPA096T1.XV; details: for DRI (Fa=0,5): GCPA096T1XV; for IC50: Homo sapiens, 72 h, read-out: IC50 in monotherapy
Experimental: as §6, §5, §3

[9] = system: GCPA096 T1.V patient-derived AGCT cell line; assay: Cell viability drug screen (Cell Titer Glo 2.0, 72 h), mono- and combination therapy, GCPA096T1.V; details: for DRI (Fa=0,5): GCPA096T1V; for IC50: Homo sapiens, 72 h, read-out: IC50 in monotherapy
Experimental: as §4, §5, §3

[10] = system: GCPA113 T1.III patient-derived AGCT cell line; assay: Cell viability drug screen (Cell Titer Glo 2.0, 72 h), mono- and combination therapy, GCPA113T1.III; details: for DRI (Fa=0,5): GCPA113T1III; for IC50: Homo sapiens
[11] = system: KGN cells (AGCT cell line); assay: Cell viability drug screen (Cell Titer Glo 2.0, 72 h), mono- and combination therapy, KGN; details: for IC50: Homo sapiens, read-out: IC50 in monotherapy
Experimental: (§7) KGN was cultured in conditions identical to AGCT-patient-derived cell lines.
as §4, §2

[12] = system: GCPA096 T1.XVI patient-derived AGCT cell line; assay: Cell viability drug screen (Cell Titer Glo 2.0, 72 h), mono- and combination therapy, GCPA096T1.XVI; details: for DRI (Fa=0,5): GCPA096T1XVI; for IC50: Homo sapiens, read-out: IC50 in monotherapy
Experimental: as §4, §5, §3

[13] = system: SVOG-3e immortalized human granulosa cell line; assay: Cell viability drug screen (72 h), SVOG-3e control; format: cell-based; details: monotherapy
Experimental: as §7
(§8) Cell lines were seeded at a density of 500 cells/well in 40 uL in 384-well plates (Corning, NY, USA) with the Multidrop™ cell dispenser (Thermo Fischer Scientific, Waltham, MA, USA) and sealed with Breathe-Easy® membrane (Sigma-Aldrich, St. Louis, MO, USA) to prevent evaporation. The SVOG-3e line was seeded at 1000 cells/well due to contact-dependent growth requirements. For each cell line, three biological repeats and two technical repeats each were performed in order to ensure the validity of the drug screens. […] Subsequently, 11 drugs and 12 drug combinations were dispensed and all wells (excluding blanks and non-DMSO control wells) were normalized to 1% DMSO using the HP Tecan D300e Digital Dispenser (Hewlett-Packard, Palo Alto, CA, USA). […] After incubation, luminescence excitation was assessed in the Spectramax reader (Molecular Devices, San Jose, CA, USA) (top read, luminescence excitation at 500 nm) and raw data were processed in Microsoft Excel to subtract background luminescence. […]
(§9) Overall cell survival (in %) was plotted against the drug concentration range of each drug (in log10[μM]) using GraphPad Prism 8.3.1. […] The IC50 values were calculated based on the Chou–Talalay method using Compusyn software [55]. […]

[14] = system: GCPA113 T1.II patient-derived AGCT cell line; assay: Cell viability drug screen (Cell Titer Glo 2.0, 72 h), mono- and combination therapy, GCPA113T1.II; details: for DRI (Fa=0,5): GCPA113T1II; for IC50: Homo sapiens
[15] = system: GCPA007 T2.IV patient-derived AGCT cell line; assay: Cell viability drug screen (Cell Titer Glo 2.0, 72 h), mono- and combination therapy, GCPA007T2.IV; details: for DRI (Fa=0,5): GCPA007T2IV; for IC50: Homo sapiens, read-out: IC50 in monotherapy
Experimental: as §1, §2, §3

[16] = system: GCPA096 T1.II patient-derived AGCT cell line; assay: Cell viability drug screen (Cell Titer Glo 2.0, 72 h), mono- and combination therapy, GCPA096T1.II; details: for DRI (Fa=0,5): GCPA096T1II; for IC50: Homo sapiens, 72 h, read-out: IC50 in monotherapy
[17] = system: MCF-7 human breast cancer cell line; assay: Cell viability drug screen (72 h), MCF-7 positive control for anti-hormonal therapies; format: cell-based; details: monotherapy
Experimental: as §7, §8, §9

[18] = in combination Carbo+Pacli+Alpelisib
[19] = in combination Everolimus+Alpelisib
[20] = 72 h, read-out: IC50 in monotherapy
[21] = drug within Carbo+Pacli+Alpelisib
[22] = drug within Everolimus+Alpelisib

In the case of `Cc1nc(NC(=O)N2CCC[C@H]2C(N)=O)sc1-c1ccnc(C(C)(C)C(F)(F)F)c1` [Alpelisib], the “DRI (Fa=0,5)” value [1, 18] is reported as 1.7, the “DRI (Fa=0,5)” value [1, 19] is reported as 1.24 and the IC50 ([1]; 72 h) is reported as 11.7 µM. For the same molecule, the IC50 [1] was 11.7 µM, the “Cmax/Css plasma (Log 10)” value ([2]; human maximum or steady state plasma concentration, log10 of the uM value) was 0.84 Log 10 and the “Cmax/Css plasma (Log 10)” value ([2]; human plasma Cmax/Css, log10 of uM value, from phase I/II clinical trials) was 0.84 Log 10. The “Cmax/Css plasma (Log 10)” value ([2]; human plasma maximum/steady state concentration, ref phase I/II clinical trials) was 0.84 Log 10, the “Cmax/Css plasma (Log 10)” value ([2]; human plasma, maximum or steady state concentration, log10 of uM value) was 0.84 and the “Cmax/Css plasma (Log 10)” value ([2]; human plasma, log10 of uM, phase I/II trials) was 0.84. For the same molecule, the Cmax ([2]; read-out: Cmax (maximum drug concentration achieved in plasma), human plasma, phase I/II studies) was 6.9 µM and 6.92 µM, the Cmax ([2]; read-out: Cmax/Css plasma, human maximum or steady state plasma concentration) was 6.92 µM and the Cmax ([2]; read-out: Cmax/Css plasma, human plasma Cmax/Css, from phase I/II clinical trials) was 6.92 µM. The Cmax ([2]; read-out: Cmax/Css plasma, human plasma maximum/steady state concentration, ref phase I/II clinical trials) was 6.92 µM, the Cmax ([2]; read-out: Cmax/Css plasma, human plasma, maximum or steady state concentration) was 6.92 µM and the Cmax ([2]; read-out: Cmax/Css plasma, human plasma, phase I/II trials) was 6.92 µM. For the same molecule, the IC50 [3] was 22 µM, the “DRI (Fa=0,5)” value ([3]; in Carbo+Pacli+Alpelisib (10:1:2)) was 10.78 and the “DRI (Fa=0,5)” value ([3]; in Everolimus+Alpelisib (1:2)) was 1.24. The “DRI (Fa=0,5)” value ([4]; GCPA028, in combination Carbo+Pacli+Alpelisib) was 4.95, the “DRI (Fa=0,5)” value ([4]; GCPA028, in combination Everolimus+Alpelisib) was 0.99 and the IC50 ([4]; 72 h) was 22.8 µM. For the same molecule, the IC50 [4] was 22.8 µM, the “DRI (Fa=0,5)” value ([5]; in Carbo+Pacli+Alpelisib) was 3.06 and the “DRI (Fa=0,5)” value ([5]; in Everolimus+Alpelisib) was 0.95. The IC50 [5] was 9.59 µM, the IC50 [5, 20] was 9.59 µM and the IC50 ([5]; read-out: IC50 in monotherapy) was 9.59 µM. The “DRI (Fa=0,5)” value ([6]; in Carbo+Pacli+Alpelisib) was 13.6802, the “DRI (Fa=0,5)” value ([6]; in Everolimus+Alpelisib) was 5.603 and the IC50 ([6]; 72 h) was 53.9 µM. The IC50 [6] was 53.9 µM, the IC50 [7] was 15 µM and the “DRI (Fa=0,5)” value [8, 21] was 2.12. The “DRI (Fa=0,5)” value [8, 22] was 1.36, the IC50 [8] was 14.6 µM and the “DRI (Fa=0,5)” value [9, 21] was 2.2. The “DRI (Fa=0,5)” value [9, 22] was 1.57, the IC50 [9] was 15 µM and the “DRI (Fa=0,5)” value [10, 21] was 5.76. For the same molecule, the “DRI (Fa=0,5)” value [10, 22] was 1.89, the IC50 [10] was 11.5 µM and the IC50 [10, 20] was 11.5 µM. It also gave an IC50 ([10]; read-out: IC50 in monotherapy) of 11.5 µM, an IC50 ([11]; 72 h) of 24.4 µM and an IC50 [11] of 24.4 µM. The “DRI (Fa=0,5)” value [11, 21] was 10.9278, the “DRI (Fa=0,5)” value [11, 22] was 1.384 and the “DRI (Fa=0,5)” value ([12]; in Carbo+Pacli+Alpelisib) was 1.95. The “DRI (Fa=0,5)” value ([12]; in Everolimus+Alpelisib) was 1.7, the IC50 ([12]; 72 h) was 23.5 µM and the IC50 [12] was 23.5 µM. For the same molecule, the IC50 [13] was 7.55 µM, the “DRI (Fa=0,5)” value [14, 21] was 1.81 and the “DRI (Fa=0,5)” value [14, 22] was 1.09. The IC50 [14] was 21.4 µM, the IC50 [14, 20] was 21.4 µM and the IC50 ([14]; read-out: IC50 in monotherapy) was 21.4 µM. For the same molecule, the “DRI (Fa=0,5)” value [15, 18] was 4.44, the “DRI (Fa=0,5)” value [15, 19] was 10.73 and the IC50 ([15]; 72 h) was 26.7 µM. For the same molecule, the IC50 [15] was 26.7 µM, the “DRI (Fa=0,5)” value [16, 21] was 2.15 and the “DRI (Fa=0,5)” value [16, 22] was 1.5. The IC50 [16] was 12.6 µM.
Work on `CC(C)(C#N)c1cc(Cn2cncn2)cc(C(C)(C)C#N)c1` [Anastrozole] yielded an IC50 ([1]; 72 h) greater than 200 µM, an IC50 [3] greater than 200 µM and an IC50 ([4]; 72 h) greater than 200 µM. For the same molecule, the IC50 [5, 20] was greater than 200 µM, the IC50 ([6]; 72 h) was greater than 200 µM and the IC50 [8] was greater than 200 µM. It also gave an IC50 [9] greater than 200 µM, an IC50 [10, 20] greater than 200 µM and an IC50 ([11]; 72 h) greater than 200 µM. The “effect on cell viability at tolerable concentrations” value [17] was “did not decrease cell viability at tolerable concentrations”, the IC50 ([12]; 72 h) was greater than 200 µM and the IC50 [14, 20] was greater than 200 µM. It also gave an IC50 ([15]; 72 h) greater than 200 µM and an IC50 [16] greater than 200 µM.
